The values below come from paper PMC11401973, “A novel small molecule ZYZ384 targeting SMYD3 for hepatocellular carcinoma via reducing H3K4 trimethylation of the Rac1 promoter” (MedComm, 2024).

For data set [1], the target named is T1, SMYD3-GST tag protein (Homo sapiens, UniProt Q9H7B4).
T1 construct: purchased BPS Bioscience
T1 sequence (Q9H7B4 1-428): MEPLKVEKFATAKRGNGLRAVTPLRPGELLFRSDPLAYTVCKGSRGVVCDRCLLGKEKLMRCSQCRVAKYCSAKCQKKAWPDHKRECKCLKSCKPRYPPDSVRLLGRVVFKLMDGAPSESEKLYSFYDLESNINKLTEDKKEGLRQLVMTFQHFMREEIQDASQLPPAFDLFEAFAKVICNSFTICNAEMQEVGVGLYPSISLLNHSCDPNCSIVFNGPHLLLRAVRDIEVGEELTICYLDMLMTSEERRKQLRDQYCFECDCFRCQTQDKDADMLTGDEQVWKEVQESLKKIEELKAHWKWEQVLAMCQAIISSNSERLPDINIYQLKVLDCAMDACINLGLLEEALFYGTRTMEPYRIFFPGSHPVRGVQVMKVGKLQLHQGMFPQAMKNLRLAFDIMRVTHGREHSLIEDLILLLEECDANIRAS
Nature of the data set: Biolayer interferometry (BLI) binding assay. Conditions: steady-state analysis, read-out: equilibrium dissociation constant (K D). The procedure:
Next, to test the binding affinity of novel small molecules to SMYD3, BLI analyses were performed to determine the binding affinity of the two series of novel small molecules targeting SMYD3. SMYD3‐glutathione S‐transferase (GST)‐tagged protein was immobilized onto GST biosensors and used to determine the binding affinity of all respective small molecules and labeled probes. The binding and dissociation curves were generated in real time by applying the SMYD3‐GST label proteins onto the biosensor surfaces, followed by monitoring small molecules interaction across several concentrations. […] SMI1 has been renamed ZYZ384 and further tested for anticancer activities using both in vitro and in vivo models.
The SMYD3‐GST tag protein (BPS Bioscience) was immobilized onto a GST biosensor (Fortebio). ZYZ384 was tested across the concentrations range of 6.25–200 µM. After baseline setup using Phosphate buffer saline (PBS), the biosensor tips were immersed in wells containing ZYZ384 continuous diluent for 180 s to combine, followed by a 180‐s dissociation step. They calculated K D value with a 1:1 model in data analysis software 9.0 (Fortebio).
(In general: In BLI a coated tip is dipped into the sample, and binding shifts an interference pattern.)

Data set [2] has as its target T2, SMYD3 (Homo sapiens, UniProt Q9H7B4).
T2 construct: purchased BPS Bioscience
T2 sequence (Q9H7B4 1-428): T1 sequence (Q9H7B4 1-428)
Nature of the data set: SMYD3 homogeneous assay kit (AlphaELISA). It counts as biochemical. The conditions noted are these: different concentrations, 3 h incubation. The procedure:
The homogeneous assay kit was used to evaluate ZYZ384 inhibition activity on SMYD3. As we know, SMYD3 can catalyze the di‐ and tri‐methylation status of lysine4 of histone H3. This protein is also reported to drive the methylation of a lysine residue present in the protein […] (MAP3K2). Therefore, a series of different concentrations of ZYZ384 were incubated with SMYD3, and the activity was determined using the kit.
The commercial SMYD3 homogenous assay kit is designed to detect SMYD3 activity for screening and analytical applications. The SMYD3 homogenous assay kit is available in a convenient AlphaELISA format with GST‐labeled SMYD3 substrate, primary antibody, methylation detection buffer, and purification of SMYD3 for 384 enzyme reactions. The key to the SMYD3 homogenous assay is a particular antibody that recognizes methylated substrates. Using the kit, methyltransferase can be detected in three simple steps on a microtitration plate. First, samples containing the SMYD3 enzyme and ZYZ384 in different dosages were incubated in substrates for 3 h. Next, the receptor bead and primary antibody are added, the donor bead is added, and the Alpha counts are recorded.

Data set [3] deals with A549 cells. Nature of the data set: MTT cell viability. It counts as cell-based. Conditions: Homo sapiens, 24 h. The method, then:
(§1) The cytotoxicity of ZYZ384 was determined across several different cancer cell lines. 3‐(4,5‐Dimethylthiazol‐2‐yl)‐2,5‐diphenyltetrazolium bromide (MTT) assay was used to assess cell viability. […] The cancer cell lines tested include human liver carcinoma cell HepG2, adenocarcinoma human alveolar basal epithelial cell A549, human colon carcinoma cell HTC116, human breast adenocarcinoma cell MDA‐MB‐231, and human pancreatic adenocarcinoma cell Miapaca2. […] In addition, ZYZ384 had low toxicity when tested in normal liver cells (LO2; Figure 3H).
(§2) Human HepG2, A549, HCT116, MDA‐MB‐231, and Miapaca2 cells were purchased from American Type Culture Collection (ATCC) and cultured in DMEM medium supplemented with 1% penicillin/streptomycin and 10% FBS at 37°C under 5% CO2 atmosphere and 95% air. Trypsin EDTA was used for cell passage.
(§3) Cell viability was assessed in several cancer cell lines and determined using the MTT assay in a 96‐well plate format. In brief, cells from […] medium (1 × 10^4/well) were inoculated in 96‐well plates and treated with ZYZ384. After 24 h of treatment, cell viability was determined by adding 1 mg/mL MTT‐containing medium for 4 h, followed by […] Dimethyl sulfoxide (DMSO) to dissolve formazan. The absorbance at 570 nm was recorded using a microplate ultraviolet/visible (UV/VIS) spectrophotometer (Tecan).

For data set [4], the system named is HCT116 cells. Nature of the data set: MTT cell viability. Conditions: Homo sapiens, HCT-116, 24 h. It counts as cell-based. The procedure:
as §1, §2, §3

For data set [5], the system named is HepG2 cells. Nature of the data set: MTT cell viability. It counts as cell-based. The conditions noted are these: Homo sapiens, 24 h. The procedure:
as §1, §2, §3

The subject of data set [6] is MDA-MB-231 cells. Nature of the data set: MTT cell viability. It counts as cell-based. Conditions: Homo sapiens; MDA-MB-231, MTT, 24 h. The method, then: as §1, §2, §3
Data set [7] deals with Miapaca2 cells. Nature of the data set: MTT cell viability. Type of data set: cell-based. The conditions noted are these: Homo sapiens, MIA PaCa-2, 24 h. The procedure:
as §1, §2, §3

In data set [8] the test system is Huh7 cells. Nature of the data set: MTT cell viability. It counts as cell-based. Conditions: Homo sapiens, Huh-7, 24 h.
Data set [9] relates to LO2 cells. Nature of the data set: MTT cell viability, normal liver cells. Type of data set: cell-based, human. The method, then: as §1, §3
The test system of data set [10] is SMYD3. Nature of the data set: SMYD3 overexpression by transfection in LO2 cells and ZYZ384 treatment. Conditions: LO2 transfected with SMYD3 OE plasmid, 24 h treatment. It counts as cell-based, human. The procedure:
as §1
SMYD3 overexpression (SMYD3 OE) plasmid (Sino Biological) was mixed with lipofectamine 2000 for plasmid transfection. After transfection for 6 h, cells were exposed to the indicated ZYZ384 treatments for another 24 h.

Data set [11] relates to C57BL/6 mice. Nature of the data set: Short-term toxicity study of C57BL/6 mice. Type of data set: in vivo. The conditions noted are these: oral. The procedure: The toxicity of ZYZ384 (Figure 4A) was determined using C57BL/6 mice in pilot studies to assess the safety and the maximum‐tolerable dose (MTD) determined (as shown in Figure 4B). No toxicity was reported in C57BL/6 mice orally administrated with 2 g/kg of ZYZ384 one time, and a survival rate of 100% was reached after 2 weeks of treatment. No abnormalities in food and water consumption are reported during this time, nor any unusual spontaneous activities; a reported […] for ZYZ384 >2 g/kg is noted for the current work.
C57BL/6 mice were randomly divided into two groups (n = 10) to determine the short‐term toxicity of ZYZ384. Mice were given the maximum dose of 2 g/kg orally administered ZYZ384 once, while the control group was treated with the same volume of sterilized water. The health conditions of all mice were monitored for 2 weeks.

Data set [12] deals with HepG2 tumors. Nature of the data set: HepG2 tumor-bearing nude mouse model (CDX). It counts as in vivo, nude mice. The procedure:
The in vivo antitumor effect of ZYZ384 was assessed using a HepG2 tumor‐bearing nude mouse model (cell‐derived xenograft, CDX; Figure 4D).
The tumor‐bearing nude mice model was established by direct injection of hepG2 cells into the left armpit of nude mice. Animals were subsequently divided into five groups (n = 7). All compounds were applied via intragastric administration, and sorafenib was used as the positive control. Other groups, except the control group, were treated with different concentrations of ZYZ384. Body weight and tumor volume were monitored and recorded throughout the treatment period.

Data set [13] relates to SMYD3. Nature of the data set: SMYD3 expression in tumor tissue (Western blot). It counts as in vivo, nude mice. The conditions noted are these: ZYZ384 treatment groups versus control group. The procedure: (§4) In order to explore the antitumor mechanism of ZYZ384, the inhibitory effect of ZYZ384 on SMYD3 was determined in tumor tissues. […] In parallel, the expression of H3K4me3 was also noted to decrease in a similar pattern to that of SMYD3 (Figure 5B). The tumor tissues from control and high‐dosage treatment group animals were isolated. Since SMYD3 can tri‐methylated H3K4, ChIP‐seq analysis was used. This method allowed for annotating H3K4me3 occupancy on genes (Figure 5C). Global H3K4me3 occupancy decreased near annotation genes' transcription start site (TSS; Figure 5D). H3K4me3 is often enriched at activated promoters near TSSs. When combined with Kyoto Encyclopedia of Genes and Genomes (KEGG) pathway enrichment analysis (Figure 5E) and Gene Ontology (GO) functional enrichment analysis (Figure 5F), attention focus on the AKT pathway, cell proliferation, and migration functions. Visualized reads and signal strength of H3K4me3 for the Rac1 gene at the promoter region decreased following treatment with ZYZ384 (Figure 5G). […]
(§5) Isolated protein (30 µg) was obtained from tissues, separated on a sodium dodecyl sulfate‐polyacrylamide gel electrophoresis (SDS‐PAGE) gel, and transferred to a polyvinylidene fluoride membrane. […] The immunoreactive protein is visualized by enhanced chemiluminescence, and the signal intensity was detected and quantified using ImageJ.
For orientation: Immunoblotting shows a protein as a band on a membrane.

The subject of data set [14] is H3K4me3. Nature of the data set: H3K4me3 expression in tumor tissue (Western blot). Type of data set: in vivo, nude mice. Conditions: ZYZ384 treatment groups versus control group. The procedure: as §4, §5
Data set [15] in a line: Water solubility. Type of data set: physicochemical. The source says:
We were granted a Chinese patent (CN114246851A) to protect the structure and activity of ZYZ384, the effectiveness of ZYZ384 at high concentrations presents a challenge for future clinical use. […] Currently, we are trying to transform it into hydrochloride or culture cocrystallization to improve its solubility, bioavailability, and druggability. Drug resistance and combination therapy of ZYZ384 on other models will be gradually carried out in the follow‐up work. Although we developed a small molecule targeting SMYD3, we still need to figure out whether it is a selective inhibitor, and related research is to be continued.

What is called IC50 is the concentration that inhibits the measured activity by half. A low value points to greater potency in that assay. On to `COc1ccc(/N=C2/c3ccccc3/C(=N/c3ccc(OC)cc3)C2(C)C)cc1` [ZYZ384, (1Z,3Z)-N1,N3-bis(4-methoxyphenyl)-2,2-dimethyl-1H-indene-1,3(2H)-diimine], for which the Kd in data set [1] is 78 µM. The “SMYD3 activity (alpha counts)” value in data set [2] was “inhibits SMYD3 in a concentration‐dependent manner”. The IC50 in data set [3] came to 20.7 µM; in data set [4], 15.2 µM; in [5], 5.23 µM; in data set [6] it was 7.28 µM; in [7], 13.8 µM; in data set [8], 5.45 µM. In data set [9] (Homo sapiens, L02, LO2 normal liver cells, MTT, 24 h), the midpoint of inhibition, the IC50, lay at 26.7 µM. Besides, the “toxicity in normal liver cells” value in data set [9] (LO2) is “low toxicity”. Moreover, in [10], the SMYD3 overexpression entry is “suppressed”. The same molecule displayed an LD5 in [11] of more than 2000 mg/kg. The toxicity result in [11] (2 g/kg one time, 2 weeks observation) is reported as “No toxicity”. Also, in data set [11] (2 g/kg, after 2 weeks), the survival rate worked out at 100%. Besides, in [12] (HepG2 tumor-bearing nude mice), the “body weight changes during treatment” value was “no noticeable body weight changes”. The “growth suppression in HepG2 tumors” value in data set [12] (nude mice, 100 mg/kg intragastric, versus sorafenib 100 mg/kg) is on record as “better than that of sorafenib”. Further, in data set [13], the “SMYD3 expression in tumor tissues” value was “significantly diminished”. Also, in data set [14], the “expression of H3K4me3 in tumor tissues” value is “decrease”. For the same molecule, in data set [15], the water solubility entry is on record as “poor water solubility”.
